Data from ChEMBL document CHEMBL5252522 (Eur J Med Chem, 2016).

What was measured:
[1] = target: T1, Protein deacetylase HDAC6 (Homo sapiens, UniProt Q9UBN7); experiment: Inhibition of HDAC6 (unknown origin)
T1 sequence (Q9UBN7 whole entry): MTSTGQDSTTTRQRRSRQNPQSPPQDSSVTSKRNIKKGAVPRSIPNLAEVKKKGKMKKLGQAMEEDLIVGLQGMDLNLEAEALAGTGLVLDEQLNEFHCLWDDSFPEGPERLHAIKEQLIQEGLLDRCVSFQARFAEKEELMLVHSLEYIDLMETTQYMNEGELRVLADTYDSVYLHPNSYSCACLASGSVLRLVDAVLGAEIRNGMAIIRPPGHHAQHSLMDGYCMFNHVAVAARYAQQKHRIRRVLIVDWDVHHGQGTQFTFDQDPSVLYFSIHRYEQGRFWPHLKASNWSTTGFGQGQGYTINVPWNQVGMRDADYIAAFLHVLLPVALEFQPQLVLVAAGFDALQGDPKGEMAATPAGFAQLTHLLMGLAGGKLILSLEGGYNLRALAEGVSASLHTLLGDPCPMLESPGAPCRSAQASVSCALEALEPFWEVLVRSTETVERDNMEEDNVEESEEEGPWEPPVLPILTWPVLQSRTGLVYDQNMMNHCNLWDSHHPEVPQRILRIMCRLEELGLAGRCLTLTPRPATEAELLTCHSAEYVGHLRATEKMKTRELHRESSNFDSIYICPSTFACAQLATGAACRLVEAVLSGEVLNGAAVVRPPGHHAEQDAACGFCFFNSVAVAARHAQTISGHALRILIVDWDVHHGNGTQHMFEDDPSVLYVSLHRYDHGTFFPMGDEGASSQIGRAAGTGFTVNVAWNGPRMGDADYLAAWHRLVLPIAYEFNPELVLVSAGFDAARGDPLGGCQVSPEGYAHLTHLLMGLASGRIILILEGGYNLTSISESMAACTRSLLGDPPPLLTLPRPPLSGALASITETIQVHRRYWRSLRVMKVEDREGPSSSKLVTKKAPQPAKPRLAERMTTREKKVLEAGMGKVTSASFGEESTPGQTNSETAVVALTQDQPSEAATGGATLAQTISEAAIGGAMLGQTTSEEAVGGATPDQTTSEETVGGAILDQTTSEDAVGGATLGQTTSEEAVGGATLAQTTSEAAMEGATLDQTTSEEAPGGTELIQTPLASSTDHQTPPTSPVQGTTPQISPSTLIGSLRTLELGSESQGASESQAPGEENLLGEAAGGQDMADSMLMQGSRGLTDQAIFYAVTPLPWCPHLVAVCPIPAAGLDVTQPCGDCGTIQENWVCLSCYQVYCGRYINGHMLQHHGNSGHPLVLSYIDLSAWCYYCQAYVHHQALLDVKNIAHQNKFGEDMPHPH

Histone deacetylase 1 = Histone deacetylase 1 (Homo sapiens, UniProt Q13547); experiment: Inhibition of HDAC1 (unknown origin)
Histone deacetylase 3 = Histone deacetylase 3 (Homo sapiens, UniProt O15379); experiment: Inhibition of HDAC3 (unknown origin)
Histone deacetylase 8 = target: T2, Histone deacetylase 8 (Homo sapiens, UniProt Q9BY41); experiment: Inhibition of HDAC8 (unknown origin)
T2 sequence (Q9BY41 whole entry): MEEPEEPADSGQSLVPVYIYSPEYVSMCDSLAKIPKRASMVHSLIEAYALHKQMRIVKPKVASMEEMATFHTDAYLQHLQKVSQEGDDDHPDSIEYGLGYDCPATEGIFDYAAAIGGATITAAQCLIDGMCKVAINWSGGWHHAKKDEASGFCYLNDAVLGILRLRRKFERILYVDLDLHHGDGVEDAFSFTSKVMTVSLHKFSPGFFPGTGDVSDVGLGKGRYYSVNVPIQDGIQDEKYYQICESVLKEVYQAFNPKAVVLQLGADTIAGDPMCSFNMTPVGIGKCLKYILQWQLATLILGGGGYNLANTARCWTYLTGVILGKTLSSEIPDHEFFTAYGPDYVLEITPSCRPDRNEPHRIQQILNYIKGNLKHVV

Histone deacetylase 9 = Histone deacetylase 9 (Homo sapiens, UniProt Q9UKV0); experiment: Inhibition of HDAC9 (unknown origin)
Histone deacetylase 5 = Histone deacetylase 5 (Homo sapiens, UniProt Q9UQL6); experiment: Inhibition of HDAC5 (unknown origin)
Histone deacetylase 4 = Histone deacetylase 4 (Homo sapiens, UniProt P56524); experiment: Inhibition of HDAC4 (unknown origin)
Histone deacetylase 2 = Histone deacetylase 2 (Homo sapiens, UniProt Q92769)
Histone deacetylase = type: protein assay, Homo sapiens
Histone deacetylase 7 = target: T3, Histone deacetylase 7 (Homo sapiens, UniProt Q8WUI4); experiment: Inhibition of HDAC7 (unknown origin)
T3 sequence (Q8WUI4 whole entry): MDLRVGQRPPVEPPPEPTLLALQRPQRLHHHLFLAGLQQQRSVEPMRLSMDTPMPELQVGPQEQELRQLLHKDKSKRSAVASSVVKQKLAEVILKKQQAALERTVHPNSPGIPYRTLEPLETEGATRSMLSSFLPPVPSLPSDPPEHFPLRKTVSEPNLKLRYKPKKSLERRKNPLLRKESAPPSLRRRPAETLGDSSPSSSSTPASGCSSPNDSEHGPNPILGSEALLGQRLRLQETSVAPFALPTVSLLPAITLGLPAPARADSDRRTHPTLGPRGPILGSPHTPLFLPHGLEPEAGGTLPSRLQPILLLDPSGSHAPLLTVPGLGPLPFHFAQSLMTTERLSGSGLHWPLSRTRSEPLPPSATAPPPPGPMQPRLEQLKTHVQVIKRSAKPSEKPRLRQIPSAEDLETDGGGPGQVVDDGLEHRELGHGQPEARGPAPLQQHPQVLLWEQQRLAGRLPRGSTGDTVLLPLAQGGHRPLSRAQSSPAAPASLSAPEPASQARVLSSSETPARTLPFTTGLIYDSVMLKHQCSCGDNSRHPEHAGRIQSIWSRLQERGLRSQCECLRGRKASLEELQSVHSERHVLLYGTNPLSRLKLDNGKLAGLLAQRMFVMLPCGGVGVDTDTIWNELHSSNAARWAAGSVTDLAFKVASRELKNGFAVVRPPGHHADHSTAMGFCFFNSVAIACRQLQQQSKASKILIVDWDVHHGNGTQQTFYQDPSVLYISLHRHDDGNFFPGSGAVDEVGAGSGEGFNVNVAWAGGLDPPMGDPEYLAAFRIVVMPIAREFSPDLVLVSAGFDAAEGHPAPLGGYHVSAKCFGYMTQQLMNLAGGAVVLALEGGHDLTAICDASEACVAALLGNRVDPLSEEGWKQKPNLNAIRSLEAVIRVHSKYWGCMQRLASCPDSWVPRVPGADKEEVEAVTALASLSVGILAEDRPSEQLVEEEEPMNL

[2] = target: T4, Polyamine deacetylase HDAC10 (Homo sapiens, UniProt Q969S8); experiment: Inhibition of HDAC10 (unknown origin)
T4 sequence (Q969S8 whole entry): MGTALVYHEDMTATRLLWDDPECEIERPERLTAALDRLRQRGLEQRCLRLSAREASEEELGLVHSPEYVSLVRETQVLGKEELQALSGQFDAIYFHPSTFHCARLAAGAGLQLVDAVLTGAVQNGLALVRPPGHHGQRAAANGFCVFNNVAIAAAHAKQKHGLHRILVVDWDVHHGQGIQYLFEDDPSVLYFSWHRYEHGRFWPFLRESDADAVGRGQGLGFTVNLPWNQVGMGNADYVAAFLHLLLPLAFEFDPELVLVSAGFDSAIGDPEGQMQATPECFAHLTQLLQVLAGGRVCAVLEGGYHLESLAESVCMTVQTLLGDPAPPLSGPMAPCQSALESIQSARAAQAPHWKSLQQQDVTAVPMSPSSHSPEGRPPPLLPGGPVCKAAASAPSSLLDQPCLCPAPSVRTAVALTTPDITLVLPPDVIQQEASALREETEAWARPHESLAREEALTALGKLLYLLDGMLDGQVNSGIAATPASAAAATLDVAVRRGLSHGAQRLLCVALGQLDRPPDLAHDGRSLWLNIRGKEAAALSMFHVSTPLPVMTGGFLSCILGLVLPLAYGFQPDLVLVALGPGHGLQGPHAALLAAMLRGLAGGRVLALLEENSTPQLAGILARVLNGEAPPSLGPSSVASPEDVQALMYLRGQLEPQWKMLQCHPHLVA

Histone deacetylase 11 = target: T5, Histone deacetylase 11 (Homo sapiens, UniProt Q96DB2); experiment: Inhibition of HDAC11 (unknown origin)
T5 sequence (Q96DB2 whole entry): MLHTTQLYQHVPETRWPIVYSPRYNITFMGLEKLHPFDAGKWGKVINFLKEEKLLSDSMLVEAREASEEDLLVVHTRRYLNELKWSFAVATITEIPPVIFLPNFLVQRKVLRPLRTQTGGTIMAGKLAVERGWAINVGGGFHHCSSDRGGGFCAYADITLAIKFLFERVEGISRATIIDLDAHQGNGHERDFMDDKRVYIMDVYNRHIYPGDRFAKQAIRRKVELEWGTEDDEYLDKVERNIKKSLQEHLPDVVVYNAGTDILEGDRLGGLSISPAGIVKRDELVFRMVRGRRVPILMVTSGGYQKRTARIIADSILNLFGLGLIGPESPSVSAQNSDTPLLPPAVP

Chain of Histone deacetylase 3 (O15379 whole entry): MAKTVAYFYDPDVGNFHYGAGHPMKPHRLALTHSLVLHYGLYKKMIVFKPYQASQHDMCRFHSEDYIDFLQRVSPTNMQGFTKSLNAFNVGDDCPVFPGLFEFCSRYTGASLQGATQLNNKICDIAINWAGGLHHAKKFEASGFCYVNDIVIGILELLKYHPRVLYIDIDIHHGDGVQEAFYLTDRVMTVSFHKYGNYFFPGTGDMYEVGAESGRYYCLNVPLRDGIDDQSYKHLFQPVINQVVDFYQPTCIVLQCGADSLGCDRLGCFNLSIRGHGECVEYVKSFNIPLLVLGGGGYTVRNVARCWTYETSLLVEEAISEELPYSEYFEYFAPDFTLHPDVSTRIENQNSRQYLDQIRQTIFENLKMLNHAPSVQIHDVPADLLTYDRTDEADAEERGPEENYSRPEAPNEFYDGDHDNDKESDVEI
Chain of Histone deacetylase 2 (Q92769 whole entry): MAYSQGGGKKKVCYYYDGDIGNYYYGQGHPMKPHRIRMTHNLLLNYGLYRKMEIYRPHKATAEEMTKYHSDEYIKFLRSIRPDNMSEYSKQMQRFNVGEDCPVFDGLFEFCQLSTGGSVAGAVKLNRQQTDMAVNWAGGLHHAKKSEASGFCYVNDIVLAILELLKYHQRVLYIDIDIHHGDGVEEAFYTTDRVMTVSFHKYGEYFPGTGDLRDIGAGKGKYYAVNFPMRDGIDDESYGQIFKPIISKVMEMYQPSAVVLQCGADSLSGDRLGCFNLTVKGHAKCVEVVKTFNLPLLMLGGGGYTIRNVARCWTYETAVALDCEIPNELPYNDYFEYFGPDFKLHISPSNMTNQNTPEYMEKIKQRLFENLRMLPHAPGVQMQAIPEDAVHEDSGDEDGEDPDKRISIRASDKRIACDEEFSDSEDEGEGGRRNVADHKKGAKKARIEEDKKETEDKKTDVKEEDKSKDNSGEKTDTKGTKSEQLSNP
Chain of Histone deacetylase 4 (P56524 whole entry): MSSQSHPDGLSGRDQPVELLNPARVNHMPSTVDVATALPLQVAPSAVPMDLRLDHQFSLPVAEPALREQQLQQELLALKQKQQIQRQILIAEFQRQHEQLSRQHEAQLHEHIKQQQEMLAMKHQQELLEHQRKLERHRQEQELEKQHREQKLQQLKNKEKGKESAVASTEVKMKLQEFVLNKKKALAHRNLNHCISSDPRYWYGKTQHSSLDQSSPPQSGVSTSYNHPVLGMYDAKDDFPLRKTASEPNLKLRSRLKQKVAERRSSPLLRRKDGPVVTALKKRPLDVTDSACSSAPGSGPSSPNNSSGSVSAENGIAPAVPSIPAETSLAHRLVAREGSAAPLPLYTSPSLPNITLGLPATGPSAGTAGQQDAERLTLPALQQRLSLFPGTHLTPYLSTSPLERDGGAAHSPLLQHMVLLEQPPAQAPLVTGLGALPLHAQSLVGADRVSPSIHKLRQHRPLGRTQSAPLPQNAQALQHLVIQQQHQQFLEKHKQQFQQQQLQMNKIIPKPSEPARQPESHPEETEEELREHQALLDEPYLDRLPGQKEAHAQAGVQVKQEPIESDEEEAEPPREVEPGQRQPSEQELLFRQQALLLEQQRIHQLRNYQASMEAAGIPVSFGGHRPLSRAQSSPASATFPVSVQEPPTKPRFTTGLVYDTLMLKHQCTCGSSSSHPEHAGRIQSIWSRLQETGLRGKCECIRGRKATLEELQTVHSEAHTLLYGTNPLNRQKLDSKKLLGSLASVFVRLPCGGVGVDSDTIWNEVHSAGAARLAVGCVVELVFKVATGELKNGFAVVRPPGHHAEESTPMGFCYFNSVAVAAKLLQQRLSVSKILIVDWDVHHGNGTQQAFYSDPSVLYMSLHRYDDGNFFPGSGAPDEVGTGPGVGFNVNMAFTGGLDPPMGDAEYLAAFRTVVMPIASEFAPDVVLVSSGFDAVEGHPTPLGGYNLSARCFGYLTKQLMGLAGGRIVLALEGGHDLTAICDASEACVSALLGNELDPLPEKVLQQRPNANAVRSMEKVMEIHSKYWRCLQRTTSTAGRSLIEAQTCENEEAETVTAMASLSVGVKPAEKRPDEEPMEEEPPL
Chain of Histone deacetylase 9 (Q9UKV0 whole entry): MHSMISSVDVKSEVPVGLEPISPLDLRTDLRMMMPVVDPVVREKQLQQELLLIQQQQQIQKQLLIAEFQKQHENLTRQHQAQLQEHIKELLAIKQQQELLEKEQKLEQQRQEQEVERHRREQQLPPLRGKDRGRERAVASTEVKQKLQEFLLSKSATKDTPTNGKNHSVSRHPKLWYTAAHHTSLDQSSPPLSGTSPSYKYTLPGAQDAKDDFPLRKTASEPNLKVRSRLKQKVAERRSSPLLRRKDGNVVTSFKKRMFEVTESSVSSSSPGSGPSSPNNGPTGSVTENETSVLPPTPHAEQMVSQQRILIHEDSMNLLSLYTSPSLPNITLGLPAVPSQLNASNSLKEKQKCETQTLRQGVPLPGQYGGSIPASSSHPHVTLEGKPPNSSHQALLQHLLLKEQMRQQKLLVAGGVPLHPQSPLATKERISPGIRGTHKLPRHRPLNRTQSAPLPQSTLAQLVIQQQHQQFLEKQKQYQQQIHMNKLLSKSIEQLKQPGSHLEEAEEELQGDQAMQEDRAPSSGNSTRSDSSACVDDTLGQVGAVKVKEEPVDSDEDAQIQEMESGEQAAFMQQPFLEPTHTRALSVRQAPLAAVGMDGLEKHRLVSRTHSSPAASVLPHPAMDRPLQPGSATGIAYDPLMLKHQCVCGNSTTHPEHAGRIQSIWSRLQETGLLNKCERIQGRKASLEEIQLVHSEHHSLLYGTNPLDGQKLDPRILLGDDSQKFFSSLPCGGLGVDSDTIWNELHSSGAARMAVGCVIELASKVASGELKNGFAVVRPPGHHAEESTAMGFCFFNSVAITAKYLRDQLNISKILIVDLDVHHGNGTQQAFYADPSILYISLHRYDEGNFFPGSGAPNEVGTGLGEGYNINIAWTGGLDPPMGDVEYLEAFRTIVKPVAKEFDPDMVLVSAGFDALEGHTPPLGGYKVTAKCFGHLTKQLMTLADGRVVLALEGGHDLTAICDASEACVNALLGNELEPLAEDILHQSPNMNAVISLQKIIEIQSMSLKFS
Chain of Histone deacetylase 1 (Q13547 whole entry): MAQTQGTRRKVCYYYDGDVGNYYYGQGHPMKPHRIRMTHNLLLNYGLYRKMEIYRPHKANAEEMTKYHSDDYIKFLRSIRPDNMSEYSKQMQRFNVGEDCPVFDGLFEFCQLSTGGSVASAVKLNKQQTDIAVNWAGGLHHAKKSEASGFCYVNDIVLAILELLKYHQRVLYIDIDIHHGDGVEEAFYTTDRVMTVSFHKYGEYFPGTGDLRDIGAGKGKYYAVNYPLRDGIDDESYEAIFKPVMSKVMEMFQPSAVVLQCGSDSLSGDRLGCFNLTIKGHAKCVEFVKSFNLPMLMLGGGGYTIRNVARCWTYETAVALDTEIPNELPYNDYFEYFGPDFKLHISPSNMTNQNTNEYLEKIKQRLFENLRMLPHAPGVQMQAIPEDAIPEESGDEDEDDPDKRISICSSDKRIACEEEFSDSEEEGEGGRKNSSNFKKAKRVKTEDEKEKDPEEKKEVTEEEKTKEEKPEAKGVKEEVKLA
Chain of Histone deacetylase 5 (Q9UQL6 whole entry): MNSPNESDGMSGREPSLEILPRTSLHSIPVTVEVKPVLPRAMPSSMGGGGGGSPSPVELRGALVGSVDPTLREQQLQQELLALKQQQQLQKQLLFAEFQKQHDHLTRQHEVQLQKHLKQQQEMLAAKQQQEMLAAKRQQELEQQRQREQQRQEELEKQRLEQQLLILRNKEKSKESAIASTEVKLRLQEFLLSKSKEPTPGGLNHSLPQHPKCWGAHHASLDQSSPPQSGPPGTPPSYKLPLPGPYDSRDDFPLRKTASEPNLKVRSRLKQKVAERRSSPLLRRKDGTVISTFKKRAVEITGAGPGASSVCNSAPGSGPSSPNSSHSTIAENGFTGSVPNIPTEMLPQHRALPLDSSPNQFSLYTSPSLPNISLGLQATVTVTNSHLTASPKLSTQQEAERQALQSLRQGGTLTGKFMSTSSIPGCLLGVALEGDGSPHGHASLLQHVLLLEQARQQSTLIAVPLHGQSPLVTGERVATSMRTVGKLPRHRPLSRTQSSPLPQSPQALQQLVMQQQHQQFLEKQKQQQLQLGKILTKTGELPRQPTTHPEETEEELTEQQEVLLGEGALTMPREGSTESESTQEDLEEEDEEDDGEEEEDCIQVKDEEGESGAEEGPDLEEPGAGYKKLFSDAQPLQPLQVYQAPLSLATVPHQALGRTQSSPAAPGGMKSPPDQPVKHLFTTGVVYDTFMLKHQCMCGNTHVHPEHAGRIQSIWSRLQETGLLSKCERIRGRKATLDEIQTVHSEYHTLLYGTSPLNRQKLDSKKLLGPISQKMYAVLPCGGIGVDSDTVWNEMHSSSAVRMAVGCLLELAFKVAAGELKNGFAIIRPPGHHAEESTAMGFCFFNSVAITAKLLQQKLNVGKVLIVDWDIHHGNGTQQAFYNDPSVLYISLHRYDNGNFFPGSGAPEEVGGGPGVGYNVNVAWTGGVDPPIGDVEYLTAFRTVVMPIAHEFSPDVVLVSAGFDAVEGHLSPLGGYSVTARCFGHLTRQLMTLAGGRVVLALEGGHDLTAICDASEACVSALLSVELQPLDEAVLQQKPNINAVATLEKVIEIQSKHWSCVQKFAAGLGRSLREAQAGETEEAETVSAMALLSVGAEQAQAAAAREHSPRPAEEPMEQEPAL

Row | Compound | IC50 [1] [µM] | IC50 (Histone deacetylase 1) [µM] | IC50 (Histone deacetylase 3) [µM] | IC50 (Histone deacetylase 8) [µM] | IC50 (Histone deacetylase 2) [µM] | further results
1 | CC(C)Cc1c(OCCOc2cccc(/C=C/C(=O)NO)c2)ccc2c1OC(=O)CC2 | 0.006 | 0.0667 | – | – | – | –
2 | CN(CCc1ccccc1)S(=O)(=O)c1cccc(/C=C/C(=O)NO)c1 | 0.005 | 0.005 | 0.0034 | 0.15 | 0.0002 | IC50 (Histone deacetylase 9): 16.9 µM; IC50 (Histone deacetylase 5): 10.7 µM; IC50 (Histone deacetylase 4): 0.5 µM
3 | COc1cc2c(Nc3cccc(/C=C/C(=O)NO)c3)ncnc2cc1OCCCN1CCOCC1 | 0.56 | 0.16 | 0.18 | – | – | –
4 | CC[N+]1=C(/C=C/C=C/C=C2/N(CCCCC(=O)N(CCc3c(C)[nH]c4ccccc34)Cc3ccc(/C=C/C(=O)NO)cc3)c3ccc4c(S(=O)(=O)O)cc(S(=O)(=O)O)cc4c3C2(C)C)C(C)(C)c2c1ccc1c(S(=O)(=O)[O-])cc(S(=O)(=O)O)cc21 | – | – | – | – | – | IC50 (Histone deacetylase): 0.0096 µM
5 | O=C(CCc1ccc(Oc2cccs2)c(O)c1)Nc1ccc(C(=O)NO)cc1 | – | 0.024 | – | 0.152 | – | –
6 | CC1(C)C(=O)N(c2ccc(C#N)c(C(F)(F)F)c2)C(=O)N1Cc1ccc(-c2cn(CCCCCCC(=O)NO)nn2)cc1 | – | – | – | – | – | IC50 (Histone deacetylase): 0.69 µM
7 | CCc1nnc(NS(=O)(=O)c2ccc(N/C=C3\Sc4ccccc4C3=O)cc2)s1 | – | – | – | – | – | IC50 (Histone deacetylase): 4.2 µM
8 | CCc1nnc(NS(=O)(=O)c2ccc(Nc3nc(C)c(C(=O)Nc4ccccc4)s3)cc2)s1 | – | – | – | – | – | IC50 (Histone deacetylase): 32 µM
9 | O=C(CCCCCn1cc(-c2ccc(C(=O)c3c(-c4ccc(O)cc4)sc4cc(O)ccc34)cc2)nn1)NO | – | 1.03 | 0.748 | 29.9 | 1.82 | –
10 | [11CH3]n1cc(CCNCc2ccc(/C=C/C(=O)NO)cc2)c2ccccc21 | 0.0016 | 0.0002 | 0.0004 | 1.04 | 0.0012 | IC50 (Histone deacetylase 9): 4.85 µM; IC50 (Histone deacetylase 7): 2.04 µM; IC50 (Histone deacetylase 5): 0.099 µM; IC50 (Histone deacetylase 4): 0.655 µM

The next lines start with results.

Row | IC50 [1] [µM] | IC50 (Histone deacetylase 1) [µM] | IC50 (Histone deacetylase 3) [µM] | IC50 (Histone deacetylase 8) [µM] | IC50 (Histone deacetylase 2) [µM] | Compound | further results
11 | 0.56 | 0.29 | 0.5 | – | – | O=C(/C=C/c1cccc(Nc2ncnc3cc4c(cc23)OCCO4)c1)NO | –
12 | – | 2.9 | 1.7 | 2.8 | – | O=C(NO)c1ccc(CC(=O)N(CCO)c2ccccc2)cc1 | IC50 (Histone deacetylase 9): > 10 µM; IC50 (Histone deacetylase 7): > 10 µM; IC50 (Histone deacetylase 5): > 10 µM; IC50 [2]: 3 µM; IC50 (Histone deacetylase 4): > 10 µM; IC50 (Histone deacetylase 11): > 10 µM
13 | – | 0.168 | 0.128 | 0.4 | 0.665 | O=C(CCCCCCNC(=O)c1c(-c2ccc(O)cc2)sc2cc(O)ccc12)NO | –
14 | – | 2.74 | – | – | 0.17 | OC1(c2ccccc2)C=C(c2ccccc2)CO1 (stereo not drawn) | –
15 | – | 0.01 | 5.2 | – | 0.02 | CN(C)Cc1ccc(C(=O)Nc2cc(-c3ccccc3)ccc2N)cc1 | –
